Results on six compounds are retold here after patent US10925848B2, “Amide derivative” (Daiichi Sankyo Company, Limited, priority 2017, dated 2021).

Test [1] relates to plasma indoxyl sulfate. Briefly: Effect of reducing plasma indoxyl sulfate concentration in mice. The format is in vivo. The settings on record: oral gavage, plasma 6 hours after L-tryptophan. The protocol:
An effect of a tryptophanase inhibitory compound to reduce plasma indoxyl sulfate concentration in a mouse can be evaluated through the following operation.
After fasting male BALB/c mice overnight, a tryptophanase inhibitory compound dissolved or suspended at a concentration of 0.01 to 10 mg/mL in 0.5% methylcellulose (MC) solution used as a solvent and 0.5% MC solution are orally administered by gavage at a volume of 10 mL/kg respectively to test compound groups and to a solvent control group. 30 minutes after the administration of the test compound or the solvent, L-tryptophan, that is, a substrate of tryptophanase, is orally administered by gavage at a dose of 1 to 3 g/kg. The L-tryptophan is suspended in a 0.5% tragacanth solution. For 12 hours after the administration of the L-tryptophan, blood is collected over time from a tail vein by using a hematocrit tube. The thus obtained blood is centrifuged at 11,000 rpm for 5 minutes to collect plasma, and the indoxyl sulfate concentration in the plasma is measured singly by liquid chromatography (fluorescence detection) or its combination with a mass spectrometer used subsequently. Plasma indoxyl sulfate concentration in the test compound group against the plasma indoxyl sulfate concentration in the solvent control group is calculated as, for example, a ratio of the area under a curve of the indoxyl sulfate concentration, and thus, the efficacy of each compound in vivo can be compared.
The indoxyl sulfate concentrations in plasma obtained by using the compounds of the respective examples shown in Table 14 below were measured by the above-described method to evaluate the plasma indoxyl sulfate suppressing effect.

Test [2] addresses tryptophanase of Bacteroides tetaiotaomicron (Bacteroides thetaiotaomicron, UniProt Q8A7N2). Briefly: Tryptophanase enzyme inhibitory activity (LDH-coupled NADH loss). The format is biochemical. As to conditions: 10 mM L-tryptophan, 30 min preincubation at 37° C., absorbance at 340 nm. The protocol:
Tryptophanase inhibitory activity was evaluated by a method using lactate dehydrogenase (LDH). The reaction time-dependent reduction in NADH conjugated with the enzymatic reaction, with LDH, of pyruvic acid produced through the enzymatic reaction of L-tryptophan as a substrate with tryptophanase, was measured with a spectrophotometer (Phillips-R S et al., Biochemistry, 23, 6228-6234 (1984)). Enzyme inhibitory activity obtained without adding a test compound (by adding DMSO alone) in the presence of tryptophanase was used as a control. As the enzyme, tryptophanase of Bacteroides tetaiotaomicron (Genbank accession number: HC914434.1) was used.
A test compound solution was prepared by dissolving each test compound in DMSO at concentrations (from 30 mM to 30 nM at 10-fold common ratio). LDH, NADH and L-tryptophan were dissolved, using distilled water, respectively to concentrations of 80 units/mL, 10 mM and 50 mM. Bacteroides tryptophanase was prepared to 30 mg/mL. A potassium phosphate buffer was used as the buffer.
A reaction solution A was dispensed at 284.8 μL per well into a 96-well plate, and the test compound solution was added at 3.2 μL per well to obtain a final concentration of 1/100 (reaction solution B). The reaction solution B was incubated at 37° C. for 30 minutes, L-tryptophan was added thereto at 32 μL per well to obtain a final concentration of […] (reaction solution C), and the enzyme reaction was performed at 37° C. over 30 minutes with absorbance at 340 nm measured for monitoring the NADH loss. Based on the NADH loss, the tryptophanase inhibitory activity of the compound was evaluated.

Test [3] has as its system Bacteroides. Briefly: Indole production suppressing effect in viable bacterium. Type of test: cell-based. The settings on record: 5 mM L-Tryptophan assay medium, anaerobic, indole in culture supernatant, read-out: Bacteroides Indole Production Inhibitory Activity(IC50). The protocol: The effect of a tryptophanase inhibitory compound to suppress indole production from a viable bacterium can be evaluated through the following operation.
When E. coli (Eschelicia coli) is used as a strain known to produce indole, the strain is cultured in an LB medium at 37° C. for 12 to 18 hours under anaerobic conditions, and then, suspended in an assay medium (5 mM L-Tryptophan/PBS(+)/25 mM HEPES (pH8)) in such a manner as to obtain O.D. of about 0.3. When bacteroides is used, the strain is cultured in a modified GAM medium at 37° C. for 12 to 18 hours under anaerobic conditions, and then suspended in an assay medium (5 mM L-Tryptophan/PBS(+)/25 mM HEPES (pH8)) in such a manner as to obtain O.D. of about 1.1. The thus obtained viable bacterial suspension prepared to have a final concentration of a compound of 1 μM to 10 mM is dispensed at 200 μL per well into a 96-well plate and cultured at 37° C. for 2 to 4 hours under anaerobic conditions, O.D., an ATP concentration (that can be quantitatively determined by using BacTiter-Glo (Promega Corporation)) and an indole concentration in the culture supernatant (that can be quantitatively determined by utilizing Ehrlich reaction) are measured. The effect of the tryptophanase inhibitory compound to suppress indole production from a viable bacterium can be evaluated depending on the degree of lowering of the indole concentration in the culture supernatant. It can be checked whether or not the effect is derived from a function other than tryptophanase inhibition, such as a bactericidal function or a bacterial growth inhibitory function, depending on lowering of the O.D. or reduction in the ATP concentration or by performing a generally practiced antibacterial activity test (a MIC (minimum growth inhibition concentration) test) using levofloxacin or the like as a positive control.
The activities of inhibiting indole production of the compounds of the respective examples shown in Table 13 were measured by the above-described method using Bacteroides to evaluate the effect of inhibiting indole production.

tryptophanase of Bacteroides tetaiotaomicron, sequence (Q8A7N2 entry or part of it, change not shown): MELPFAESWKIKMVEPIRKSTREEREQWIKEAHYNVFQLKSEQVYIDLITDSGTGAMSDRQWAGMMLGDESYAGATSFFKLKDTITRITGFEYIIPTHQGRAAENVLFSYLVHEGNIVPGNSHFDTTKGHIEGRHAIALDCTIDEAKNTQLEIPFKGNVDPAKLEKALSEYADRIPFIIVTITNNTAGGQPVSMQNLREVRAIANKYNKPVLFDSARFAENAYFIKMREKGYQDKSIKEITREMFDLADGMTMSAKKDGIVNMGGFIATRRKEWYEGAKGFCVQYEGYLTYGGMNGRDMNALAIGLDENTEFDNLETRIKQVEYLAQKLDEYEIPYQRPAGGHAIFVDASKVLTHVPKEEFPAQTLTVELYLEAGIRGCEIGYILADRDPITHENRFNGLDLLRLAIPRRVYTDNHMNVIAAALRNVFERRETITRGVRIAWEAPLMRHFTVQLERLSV

Usually IC50 stands for the midpoint of a concentration-inhibition curve. With `CC[C@@](C)(NC(=O)c1cc(I)c(N)cc1OC)C(=O)O` [Compound of Example 16, (−)-N-(4-Amino-5-iodo-2-methoxybenzoyl)-D-isovaline], the “Plasma Indoxyl Sulfate Reduction Effect in Male BALB/c Mouse (Indoxyl sulfate reduction effect in plasma 6 hours after administration of L-tryptophan: ED75-, mg/kg)” value (“Plasma Indoxyl Sulfate Reduction Effect” for short) in test [1] is 1 mg/kg. The IC50 is 360 nM in test [2] and < 3000 nM in test [3].

Regarding `CCOc1cc(N)c(Br)cc1C(=O)N[C@](C)(CC)C(=O)O` [Compound of Example 21, (−)-N-(4-Amino-5-bromo-2-ethoxybenzoyl)-D-isovaline], the “Plasma Indoxyl Sulfate Reduction Effect” value in test [1] came out at 1 mg/kg. Further, the IC50 in test [2] was 100 nM; in test [3] it was < 3000 nM.

On to `CCOc1cc(N)c(F)cc1C(=O)N[C@](C)(CC)C(=O)O` [Compound of Example 23, (−)-N-(4-Amino-2-ethoxy-5-fluorobenzoyl)-D-isovaline], for which the “Plasma Indoxyl Sulfate Reduction Effect” value in test [1] came to 1 mg/kg. Besides, the half-maximal inhibitory concentration (IC50) was 490 nM in test [2] and < 3000 nM in test [3].

With `CCOc1cc(N)c(F)cc1C(=O)N[C@@](C)(CC)C(=O)O` [Compound of Example 24, (+)-N-(4-Amino-2-ethoxy-5-fluorobenzoyl)-L-isovaline], the “Plasma Indoxyl Sulfate Reduction Effect” value in test [1] was 1 mg/kg. Moreover, the IC50 in test [2] is 130 nM; in test [3], < 3000 nM.

For `CCCOc1cc(N)c(Cl)cc1C(=O)N[C@](C)(CC)C(=O)O` [Compound of Example 25, (−)-N-(4-Amino-5-chloro-2-propoxybenzoyl)-D-isovaline], the “Plasma Indoxyl Sulfate Reduction Effect” value in test [1] is on record as 1 mg/kg. Also, the IC50 in test [2] is 40 nM; in test [3] it was < 3000 nM.

Turning to `CCCOc1cc(N)c(F)cc1C(=O)N[C@](C)(CC)C(=O)O` [Compound of Example 27, (−)-N-(4-Amino-5-fluoro-2-propoxybenzoyl)-D-isovaline], the “Plasma Indoxyl Sulfate Reduction Effect” value in test [1] is recorded as 1 mg/kg. The values for the half-inhibitory concentration (IC50) in test [2] and in test [3] were 90 nM and < 3000 nM, respectively.
